Assays:
[1] = test system: adults and nymphal stages of the two-spotted mite; assay: Mite Foliage Spray Test; assay type: in vivo, Tetranychus urticae (Koch); set-up: key: 1: no mortality; 3: an approximately 50% mortality; 5: 100% mortality; conditions: 4 days
From the text: (§1) The test procedures were as follows:
(§2) Compositions were rated on the basis of percent kill with a rating of 1 indicating no mortality; 3 signifying an approximately 50% mortality and 5 indicating 100% mortality at the indicated dosage.

[2] = test system: egg of the two-spotted mite; assay: Mite Ovicide Test; assay type: in vivo, Tetranychus urticae (Koch); set-up: key to Mite Ova rating: 1: no mortality; 3: an approximately 50% mortality; 5: 100% mortality; conditions: spray on eggs, 4 days
From the text: as §1
The plants were allowed to dry thoroughly.
as §2

[3] = test system: Perennial rye grass, crabgrass, red root pigweed, mustard; assay: Preliminary Herbicide Seed Germination Test; conditions: each rated 1 (no injury) to 5 (no seedlings emerged)
[4] = rating/maximum 40: 100 and 1000 ppm, four species, 10-12 days
[5] = rating/maximum 20: 100 ppm only, four species
[6] = rating/maximum 30: 100 and 1000 ppm, crabgrass omitted

Compound	Mite Adult rating [1]	Mite Ova rating [2]	Herbicide (total preemergence rating) [3, 4]	Herbicide (total preemergence rating) [3, 5]	Herbicide (total preemergence rating) [3, 6]	Herbicide (total preemergence rating) ([3]; rating/maximum 15: 100 ppm only, crabgrass omitted)
Cc1ccccc1C1=C(OC(=O)C(C)(C)C)c2ccccc2C1=O [2-(2'-Methylphenyl)-3-(pivaloyloxy)indone]	5 (100% mortality)	5 (100% mortality)	20/40			
CCCCCCCCCCCCCCCCCC(=O)OC1=C(c2ccc(C)cc2C)C(=O)c2ccccc21 [2-(2',4'-Dimethylphenyl)-3-(stearoyloxy)indone]	3 (an approximately 50% mortality)	5 (100% mortality)		14/20		
CC(=O)OC1=C(c2ccccc2)C(=O)c2ccccc21 [2-Phenyl-3-(acetoxy)indone]	1	1	8/40			
COc1cccc(C(=O)OC2=C(c3c(Cl)cccc3Cl)C(=O)c3ccccc32)c1 [3-(3-Methoxybenzoyloxy)-2-(2',6'-dichlorophenyl)indone]	5 (100% mortality)	5 (100% mortality)			23/30	
COc1cccc(C(=O)OC2=C(c3c(C)cc(C)cc3C)C(=O)c3ccccc32)c1 [3-(3-Methoxybenzoyloxy)-2-(2',4',6'-trimethylphenyl)indone]	5 (100% mortality)	5 (100% mortality)			25/30	
O=C(OC1=C(c2c(Cl)cccc2Cl)C(=O)c2ccccc21)c1ccc(Cl)c(Cl)c1 [3-(3,4-Dichlorobenzoyloxy)-2-(2',6'-dichlorophenyl)indone]	5 (100% mortality)	5 (100% mortality)	29/40			
Cc1cccc(Cl)c1C1=C(OC(=O)C(C)(C)C)c2ccccc2C1=O [2-(2'-Chloro-6'-methylphenyl)-3-(pivaloyloxy)indone]	5 (100% mortality)	5 (100% mortality)	33/40			
CCCCC(CC)C(=O)OC1=C(c2ccccc2F)C(=O)c2ccccc21 (stereo not drawn) [3-(2-Ethylhexanoyloxy)-2-(2'-fluorophenyl)indone]	3 (an approximately 50% mortality)	5 (100% mortality)		4/20		
Cc1ccc(C(=O)OC2=C(c3c(Cl)cccc3Cl)C(=O)c3ccccc32)c(C)c1 [3-(2,4-Dimethylbenzoyloxy)-2-(2',6'-dichlorophenyl)indone]	1	3 (an approximately 50% mortality)		5/20		
CCCCC(CC)C(=O)OC1=C(c2ccccc2)C(=O)c2ccccc21 (stereo not drawn) [3-(2-Ethylhexanoyloxy)-2-phenylindone]	1	1		4/20		
Cc1cc(C)c(C2=C(OC(=O)c3c(Cl)cccc3Cl)c3ccccc3C2=O)c(C)c1 [3-(2,6-Dichlorobenzoyloxy)-2-(2',4',6'-trimethylphenyl)indone]	1	1	8/40			
CC(C)(C)C(=O)OC1=C(c2ccccc2C(F)(F)F)C(=O)c2ccccc21 [2-(2'-Trifluoromethylphenyl)-3-pivaloyloxy indone]	1	1		4/20		
Cc1ccc(C(=O)OC2=C(c3c(C)cc(C)cc3C)C(=O)c3ccccc32)c(C)c1 [3-(2,4-Dimethylbenzoyloxy)-2-(2',4',6'-trimethylphenyl)indone]	1	5 (100% mortality)				11/15
Cc1cc(C)c(C2=C(OC(=O)N3CCCCC3)c3ccccc3C2=O)c(C)c1 [2-(2',4',6'-Trimethylphenyl)-3-(piperdinocarbonyloxy)indone]	1	3 (an approximately 50% mortality)		4/20		

Source: US4091006A, “Esters of 3-hydroxyindone compounds” (priority 1975, dated 1978)
